Measured values taken from patent US9751842B2, “Phthalazine derivatives” (Merck Patent GmbH, priority 2013, dated 2017).
Like-named read-outs stand apart in the source and are kept apart here.

Experiments:
[1] = target: T1, GST-tagged Tankyrase-1 (1023-1327 aa) (Homo sapiens, UniProt O95271); experiment: Tankyrase 1 autoparsylation HTRF enzyme assay; type: biochemical
T1 construct: GST-tagged Tankyrase-1 (1023-1327 aa)
Description: (§1) Biochemical Activity Testing of Tankyrase 1 and 2: Autoparsylation Assay
(§2) The autoparsylation assay is run in two steps: the enzymatic reaction in which GST-tagged Tankyrase-1, resp Tankyrase-2 transferred biotinylated ADP-ribose to itself from biotinylated NAD as co-substrate and the detection reaction where a time resolved FRET between cryptate labelled anti-GST bound to the GST tag of the enzyme and Xlent® labelled-streptavidin bound the biotin-parsylation residue is analysed. The autoparsylation activity was detectable directly via the increase in HTRF signal.
(§3) The autoparsylation assay is performed as 384-well HTRF® (Cisbio, Codolet, France) assay format in Greiner low volume nb 384-well microtiter plates and is used for high throughput screen. 250 nM GST-tagged Tankyrase-1 (1023-1327 aa), respectively about 250 nM GST-tagged Tankyrase-2 (873-1166 aa) and 5 μM bio-NAD (Biolog, Life science Inst., Bremen, Germany) as co-substrate are incubated in a total volume of 5 μl (50 mM HEPES, 4 mM Mg-chloride, 0.05% Pluronic F-68, 1.4 mM DTT, 0.5% DMSO, pH 7.7) in the absence or presence of the test compound (10 dilution concentrations) for 90 min at 30° C. The reaction is stopped by the addition of 1 μl 50 mM EDTA solution. 2 μl of the detection solution (1.6 μM SA-Xlent® (Cisbio, Codolet, France), 7.4 nM Anti-GST-K® (Eu-labelled anti-GST, Cisbio, Codolet, France) in 50 mM HEPES, 800 mM KF, 0.1° A. BSA, 20 mM EDTA, 0.1% CHAPS, pH 7.0) are added. After 1 h incubation at room temperature the HTRF is measured with an Envision multimode reader (Perkin Elmer LAS Germany GmbH) at excitation wavelength 340 nm (laser mode) and emission wavelengths 615 nm and 665 nm. The ratio of the emission signals is determined. The full value used is the inhibitor-free reaction. The pharmacological zero value used is XAV-939 (Tocris) in a final concentration of 5 μM. The inhibitory values (IC50) are determined using either the program Symyx Assay Explorer® or Condosseo® from GeneData.

[2] = target: T2, GST-tagged Tankyrase-2 (873-1166 aa) (Homo sapiens, UniProt Q9H2K2); experiment: Tankyrase 2 autoparsylation HTRF enzyme assay; type: biochemical
T2 construct: GST-tagged Tankyrase-2 (873-1166 aa)
T2 sequence (Q9H2K2 873-1166): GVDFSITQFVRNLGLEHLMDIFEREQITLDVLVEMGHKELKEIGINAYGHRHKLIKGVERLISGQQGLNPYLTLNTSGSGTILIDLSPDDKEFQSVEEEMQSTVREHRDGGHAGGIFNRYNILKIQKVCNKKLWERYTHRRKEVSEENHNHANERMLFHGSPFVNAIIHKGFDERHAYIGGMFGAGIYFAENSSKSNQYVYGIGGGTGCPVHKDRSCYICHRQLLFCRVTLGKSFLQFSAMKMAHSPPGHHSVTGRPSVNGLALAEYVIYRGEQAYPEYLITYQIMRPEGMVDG
Description: as §1, §2, §3

His-tagged Parp-1 = target: T3, His-tagged Parp-1 (Homo sapiens, UniProt P09874); experiment: PARP-1 autoparsylation HTRF assay; type: biochemical; details: 150 min at 23° C
T3 construct: purchased Enzo Life Sciences GmbH, Lörrach, Germany
T3 sequence (P09874 whole entry): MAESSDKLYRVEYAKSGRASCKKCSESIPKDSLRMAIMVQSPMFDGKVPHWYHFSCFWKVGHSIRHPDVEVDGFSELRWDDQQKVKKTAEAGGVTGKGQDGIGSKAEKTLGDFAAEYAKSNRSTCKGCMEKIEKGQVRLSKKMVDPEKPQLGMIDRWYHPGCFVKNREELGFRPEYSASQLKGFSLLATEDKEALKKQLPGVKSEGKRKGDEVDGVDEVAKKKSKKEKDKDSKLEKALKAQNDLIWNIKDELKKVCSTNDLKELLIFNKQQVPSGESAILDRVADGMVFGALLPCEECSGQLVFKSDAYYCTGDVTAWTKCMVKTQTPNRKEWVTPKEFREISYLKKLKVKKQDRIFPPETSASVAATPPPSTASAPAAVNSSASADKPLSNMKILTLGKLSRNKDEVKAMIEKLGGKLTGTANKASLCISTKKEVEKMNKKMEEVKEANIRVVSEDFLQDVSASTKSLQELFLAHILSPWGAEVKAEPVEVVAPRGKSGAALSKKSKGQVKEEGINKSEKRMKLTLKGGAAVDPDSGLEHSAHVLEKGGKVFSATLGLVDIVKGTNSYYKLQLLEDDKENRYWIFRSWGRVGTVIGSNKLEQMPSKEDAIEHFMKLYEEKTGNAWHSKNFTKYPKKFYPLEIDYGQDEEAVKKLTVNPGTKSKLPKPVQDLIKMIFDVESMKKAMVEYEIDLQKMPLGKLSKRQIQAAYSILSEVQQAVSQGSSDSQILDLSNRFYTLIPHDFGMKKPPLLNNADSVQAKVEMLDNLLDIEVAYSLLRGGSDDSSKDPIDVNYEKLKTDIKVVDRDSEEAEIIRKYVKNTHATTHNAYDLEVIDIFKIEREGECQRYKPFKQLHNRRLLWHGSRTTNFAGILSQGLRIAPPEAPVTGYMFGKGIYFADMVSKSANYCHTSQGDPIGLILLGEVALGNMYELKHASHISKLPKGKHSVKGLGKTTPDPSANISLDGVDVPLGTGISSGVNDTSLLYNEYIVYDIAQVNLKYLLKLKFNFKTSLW
Text: Description of the PARP1 Assay
Biochemical Activity Testing of PARP-1: Autoparsylation Assay
The autoparsylation assay is run in two steps: the enzymatic reaction in which His-tagged Parp-1 transfers biotinylated ADP-ribose/ADP-ribose to itself from biotinylated NAD/NAD as co-substrate and the detection reaction where a time resolved FRET between cryptate labelled anti-His antibody bound to the His tag of the enzyme and Xlent® labelled-streptavidin bound the biotin parsylation residue is analysed. The autoparsylation activity is detectable directly via the increase in HTRF signal.
The autoparsylation assay is performed as 384-well HTRF® (Cisbio, Codolet, France) assay format in Greiner low volume nb 384-well microtiter plates. 35 nM His-tagged Parp-1 (human, recombinant, Enzo Life Sciences GmbH, Lörrach, Germany) and a mixture of 125 nM bio-NAD (Biolog, Life science Inst., Bremen, Germany) and 800 nM NAD as co-substrate are incubated in a total volume of 6 μl (100 mM Tris/HCl, 4 mM Mg-chloride, 0.01% IGEPAL® CA630, 1 mM DTT, 0.5% DMSO, pH 8, 13 ng/μl activated DNA (BPS Bioscience, San Diego, US)) in the absence or presence of the test compound (10 dilution concentrations) for 150 min at 23° C. The reaction is stopped by the addition of 4 μl of the Stop/detection solution (70 nM SA-Xlent® (Cisbio, Codolet, France), 2.5 nM Anti-His-K® (Eu-labelled anti-His, Cisbio, Codolet, France) in 50 mM HEPES, 400 mM KF, 0.1% BSA, 20 mM EDTA, pH 7.0). After 1 h incubation at room temperature the HTRF is measured with an Envision multimode reader (Perkin Elmer LAS Germany GmbH) at excitation wavelength 340 nm (laser mode) and emission wavelengths 615 nm and 665 nm. The ratio of the emission signals is determined. The full value used is the inhibitor-free reaction. The pharmacological zero value used is Olaparib (LClabs, Woburn, US) in a final concentration of 1 μM. The inhibitory values (IC50) are determined using either the program Symyx Assay Explorer® or Condosseo® from GeneData.

[3] = target: T4, GST-tagged Tnks-1 (1023-1327 aa) (Homo sapiens, UniProt O95271); experiment: TNKS1 activity ELISA (autoparsylation); type: biochemical
T4 construct: GST-tagged Tnks-1 (1023-1327 aa, prepared in-house); made in house
T4 sequence (O95271 1023-1327): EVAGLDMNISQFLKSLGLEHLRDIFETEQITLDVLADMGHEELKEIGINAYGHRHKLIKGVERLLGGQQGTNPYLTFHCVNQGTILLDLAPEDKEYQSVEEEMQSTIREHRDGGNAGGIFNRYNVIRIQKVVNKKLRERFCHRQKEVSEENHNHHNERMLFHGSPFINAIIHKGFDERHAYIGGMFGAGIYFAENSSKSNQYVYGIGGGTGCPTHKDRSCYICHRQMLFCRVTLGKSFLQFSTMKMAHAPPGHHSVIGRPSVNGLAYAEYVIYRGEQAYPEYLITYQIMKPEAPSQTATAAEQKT
Description: (§4) Description of the TNKS1 and TNKS2 ELISA Assay
(§5) Biochemical Activity Testing of TNKS 1 and 2: Activity ELISA (Autoparsylation Assay)
(§6) For analysis of autoparsylation activity of TNKS 1 and 2 an activity ELISA is performed: In the first step GST tagged TNKS is captured on a Glutathione coated plate. Then the activity assay with biotinylated NAD is performed in the absence/presence of the compounds. During the enzymatic reaction GST tagged TNKS transfers biotinylated ADP-ribose to itself from biotinylated NAD as co-substrate. For the detection streptavidin-HRP conjugate is added that binds to the biotinylated TNKS and is thereby captured to the plates. The amount of biotinylated resp. autoparsylated TNKS is detected with a luminescence substrate for HRP. The level of the luminescence signal correlates directly with the amount of autoparsylated TNKS and therefore with activity of TNKS.
(§7) The activity ELISA is performed in 384 well Glutathione coated microtiter plates (Express capture Glutathione coated plate, Biocat, Heidelberg, Germany). The plates are pre-equilibrated with PBS. Then the plates are incubated with 50 μl 20 ng/well GST-tagged Tnks-1 (1023-1327 aa, prepared in-house), respectively GST-tagged Tnks-2 (873-1166 aa, prepared in-house) in assay buffer (50 mM HEPES, 4 mM Mg-chloride, 0.05% Pluronic F-68, 2 mM DTT, pH 7.7) overnight at 4° C. The plates are washed 3 times with PBS-Tween-20. The wells are blocked by incubation at room temperature for 20 minutes with 50 μl blocking buffer (PBS, 0.05% Tween-20, 0.5% BSA). Afterwards the plates are washed 3 times with PBS-Tween-20. The enzymatic reaction is performed in 50 μl reaction solution (50 mM HEPES, 4 mM Mg-chloride, 0.05% Pluronic F-68, 1.4 mM DTT, 0.5% DMSO, pH 7.7) with 10 μM bio-NAD (Biolog, Life science Inst., Bremen, Germany) as co-substrate in the absence or presence of the test compound (10 dilution concentrations) for 1 hour at 30° C. The reaction is stopped by 3 times washing with PBS-Tween-20. For the detection 50 μl of 20 ng/μl Streptavidin, HRP conjugate (MoBiTec, Göttingen, Germany) in PBS/0.05% Tween-20/0.01% BSA are added and the plates are incubated for 30 minutes at room temperature. After three times washing with PBS-Tween-20 50 μl of SuperSignal ELISA Femto Maximum sensitivity substrate solution (ThermoFisherScientific (Pierce), Bonn, Germany) are added. Following a 1 minute incubation at room temperature luminescence signals are measured with an Envision multimode reader (Perkin Elmer LAS Germany GmbH) at 700 nm. The full value used is the inhibitor-free reaction. The pharmacological zero value used is XAV-939 (Tocris) in a final concentration of 5 μM. The inhibitory values (IC50) are determined using either the program Symyx Assay Explorer® or Condosseo® from GeneData.

[4] = target: T5, GST-tagged Tnks-2 (873-1166 aa) (Homo sapiens, UniProt Q9H2K2); experiment: TNKS2 activity ELISA (autoparsylation); type: biochemical
T5 construct: GST-tagged Tnks-2 (873-1166 aa, prepared in-house); made in house
T5 sequence (Q9H2K2 873-1166): as the sequence (Q9H2K2 873-1166) above
Description: as §4, §5, §6, §7

[5] = tested on: Tankyrase (Axin2 level in DLD1 cells); experiment: Cellular inhibition of Tankyrase, Axin2 Luminex assay in DLD1 cells; type: cell-based; details: Homo sapiens, DLD-1, 24 hours, Axin2 level increase, read-out: IC50 Cell assay
Description: Measurement of Cellular Inhibition of Tankyrase
Since Tankyrases have been described to modulate cellular level of Axin2 (Huang et al., 2009; Nature) the increase of Axin2 level is used as read-out for determination of cellular inhibition of Tankyrases in a Luminex based assay.
Cells of the colon carcinoma cell line DLD1 are plated in 96 well plates with 1.5×10^4 cells per well. Next day, cells are treated with a serial dilution of test compound in seven steps as triplicates with a final DMSO concentration of 0.3%. After 24 hours, cells are lysed in lysis buffer (20 mM Tris/HCl pH 8.0, 150 mM NaCl, 1% NP40, 10% Glycerol) and lysates are cleared by centrifugation through a 96 well filter plate (0.65 μm). Axin2 protein is isolated from cell lysates by incubation with a monoclonal anti-Axin2 antibody (R&D Systems #MAB6078) that is bound to fluorescent carboxybeads. Then, bound Axin2 is specifically detected with a polyclonal anti-Axin2 antibody (Cell Signaling #2151) and an appropriate PE-fluorescent secondary antibody. The amount of isolated Axin2 protein is determined in a Luminex^200 machine (Luminex Corporation) according to the manufacturer's instruction by counting 100 events per well. Inhibition of Tankyrase by test compounds results in higher levels of Axin2 which directly correlates with an increase of detectable fluorescence. As controls cells are treated with solvent alone (neutral control) and with a Tankyrase reference inhibitor IWR-2 (3E-06 M) which refers as control for maximum increase of Axin2. For analysis, the obtained data are normalized against the untreated solvent control and fitted for determination of the EC50 values using the Assay Explorer software (Accelrys).

[6] = HTRF autoparsylation, 90 min at 30° C, read-out: IC50 TNKS1 enzyme assay
[7] = HTRF autoparsylation, 90 min at 30° C, read-out: IC50 TNKS2 enzyme assay
[8] = activity ELISA, 1 hour at 30° C, read-out: IC50 TNKS1 ELISA
[9] = activity ELISA, 1 hour at 30° C, read-out: IC50 TNKS2 ELISA

T1 sequence (O95271 1023-1327): as the sequence (O95271 1023-1327) above

IC50 [1, 6] [µM] | IC50 [2, 7] [µM] | IC50 (His-tagged Parp-1) [µM] | IC50 [3, 8] [µM] | IC50 [4, 9] [µM] | IC50 [1] [µM] | IC50 [2] [µM] | IC50 [3] [µM] | IC50 [4] [µM] | IC50 [5] [µM] | Structure (SMILES)
0.3 to 3 | 3 to 50 | 3 to 50 | 0.3 to 3 | 0.3 to 3 |  |  |  |  |  | O=C(Cc1cccc(OC(F)(F)F)c1)Nc1nncc2ccccc12 [Compound A5, N-phthalazin-1-yl-2-(3-trifluoromethoxyphenyl)-acetamide]
0.3 to 3 | 3 to 50 | 0.3 to 3 | 0.3 to 3 | 0.3 to 3 |  |  |  |  |  | N#Cc1cccc(CC(=O)Nc2nncc3ccccc23)c1 [Compound A6, 2-(3-cyanophenyl)-N-phthalazin-1-yl-acetamide]
 |  | 0.3 to 3 |  |  | 0.3 to 3 | 0.3 to 3 | 0.3 to 3 | 0.3 to 3 |  | O=C(Cc1cccc([N+](=O)[O-])c1)Nc1nncc2ccccc12 [Compound A7, 2-(3-nitrophenyl)-N-phthalazin-1-yl-acetamide]
< 0.3 | 0.3 to 3 |  | < 0.3 | < 0.3 |  |  |  |  | 3 to 50 | O=C(CCc1ccccc1)Nc1nncc2ccccc12 [Compound A14, 3-phenyl-N-phthalazin-1-yl-propionamide]
3 to 50 | 3 to 50 |  |  |  |  |  |  |  |  | Cc1cccc2c(NC(=O)Cc3ccccc3)nncc12 [Compound A19, N-(5-methyl-phthalazin-1-yl)-2-phenyl-acetamide]

Second part, the molecule before the results:

Structure (SMILES) | IC50 [1, 6] [µM] | IC50 [2, 7] [µM] | IC50 (His-tagged Parp-1) [µM] | IC50 [3, 8] [µM] | IC50 [4, 9] [µM] | IC50 [1] [µM] | IC50 [2] [µM] | IC50 [3] [µM] | IC50 [4] [µM] | IC50 [5] [µM]
O=C(Cc1ccc(OC(F)(F)F)cc1)Nc1nncc2ccccc12 [Compound A8, N-phthalazin-1-yl-2-(4-trifluoromethoxyphenyl)-acetamide] | < 0.3 | 0.3 to 3 | 3 to 50 | < 0.3 | < 0.3 |  |  |  |  | 
CC(C)(C)c1ccc(CC(=O)Nc2nncc3ccccc23)cc1 [Compound A9, 2-(4-tert-butylphenyl)-N-phthalazin-1-yl-acetamide] | 0.3 to 3 | 0.3 to 3 | 3 to 50 | < 0.3 | < 0.3 |  |  |  |  | 
O=C(Cc1c(Cl)cccc1Cl)Nc1nncc2ccccc12 [Compound A10, 2-(2,6-dichlorophenyl)-N-phthalazin-1-yl-acetamide] | 3 to 50 | 3 to 50 | 3 to 50 |  |  |  |  |  |  | 
CCOc1ccc(CC(=O)Nc2nncc3c(F)cccc23)cc1 [Compound A11, 2-(4-ethoxy-phenyl)-N-(5-fluoro-phthalazin-1-yl)-acetamide] | 3 to 50 | 3 to 50 |  |  |  |  |  |  |  | 
COc1ccc(CC(=O)Nc2nncc3c(F)cccc23)cc1 [Compound A12, N-(5-fluoro-phthalazin-1-yl)-2-(4-methoxy-phenyl)-acetamide] | 0.3 to 3 | 3 to 50 |  |  |  |  |  |  |  | 
O=C(CCC1CCCCC1)Nc1nncc2ccccc12 [Compound A13, 3-cyclohexyl-N-phthalazin-1-yl-propionamide] | 0.3 to 3 | 0.3 to 3 | 3 to 50 | < 0.3 | < 0.3 |  |  |  |  | 
COc1ccc(CC(=O)Nc2nncc3c(C)cccc23)cc1 [Compound A21, 2-(4-methoxy-phenyl)-N-(5-methyl-phthalazin-1-yl)-acetamide] | 3 to 50 | 3 to 50 |  |  |  |  |  |  |  | 
